Measured values reported in ChEMBL document CHEMBL1201862, “PubChem BioAssay data set” (2004).
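Values below derive from 48-hour exposures of cells grown in 96-well plates, with endpoints linearly interpolated between the two concentrations bracketing the appropriate inhibition level. GI50 marks 50% less growth.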 The source made the active and inactive calls. Rule as the data show it: active = GI50 up to about 1.1 µM and inactive = higher.

Experiments:
Assay in all cases: NCI anticancer screen, dose series, 48 h
A498 = tested on: A498
A549 = tested on: A549
DU-145 = tested on: DU-145
IGROV-1 = tested on: IGROV-1
LOX IMVI = tested on: LOX IMVI
MCF7 = tested on: MCF7
MDA-MB-435 = tested on: MDA-MB-435
NCI-H460 = tested on: NCI-H460
OVCAR-3 = tested on: OVCAR-3
RPMI-8226 = tested on: RPMI-8226
SF-295 = tested on: SF-295
SK-MEL-28 = tested on: SK-MEL-28
SK-MEL-2 = tested on: SK-MEL-2
SK-MEL-5 = tested on: SK-MEL-5
SNB-19 = tested on: SNB-19
SNB-75 = tested on: SNB-75
SW-620 = tested on: SW-620
TK-10 = tested on: TK-10
U-251 = tested on: U-251
UO-31 = tested on: UO-31

SMILES | GI50 (A498) | GI50 (A549) | GI50 (DU-145) | GI50 (IGROV-1) | GI50 (LOX IMVI) | GI50 (MCF7) | GI50 (MDA-MB-435) | GI50 (NCI-H460) | GI50 (OVCAR-3) | GI50 (RPMI-8226) | GI50 (SF-295) | GI50 (SK-MEL-28) | GI50 (SK-MEL-2) | GI50 (SK-MEL-5) | GI50 (SNB-19) | GI50 (SNB-75) | GI50 (SW-620) | GI50 (TK-10) | GI50 (U-251) | GI50 (UO-31)
Cn1c(Sc2ccc(-c3cccnc3)n2C)ccc1-c1cccnc1 | 20.9 µM (inactive) | 26.4 µM (inactive) | 18.1 µM (inactive) | 15 µM (inactive) | 3.73 µM (inactive) | 17.7 µM (inactive) | 13.4 µM (inactive) | 15.2 µM (inactive) | 11.3 µM (inactive) | 6.65 µM (inactive) | 16.2 µM (inactive) | 10.3 µM (inactive) | 14.2 µM (inactive) | 16.4 µM (inactive) | 19.6 µM (inactive) | 21.8 µM (inactive) | 6.93 µM (inactive) | 17.3 µM (inactive) | 13.1 µM (inactive) | 17.5 µM (inactive)
C/C1=C\[C@H](C)C[C@H](C)OC(=O)[C@H](C)NC(=O)[C@@H](Cc2ccc(O)c(Br)c2)N(C)C(=O)[C@H](C)NC(=O)[C@@H](C)C1 | 0.0149 µM (active) | 0.0646 µM (active) | 0.155 µM (active) | 0.0152 µM (active) | 0.00533 µM (active) | 0.0479 µM (active) | 0.0735 µM (active) | 0.00701 µM (active) | 0.0179 µM (active) | 0.0295 µM (active) | 0.0578 µM (active) | 0.00659 µM (active) | 0.0502 µM (active) | 0.0127 µM (active) | 0.184 µM (active) | 0.0184 µM (active) | 0.00385 µM (active) | 0.0724 µM (active) | 0.00991 µM (active) | 0.0538 µM (active)
Cc1cccc(NC(=S)Nc2ccccc2Cl)n1 | 24.9 µM (inactive) | 47.6 µM (inactive) | > 100 µM (inactive) | 30.1 µM (inactive) | > 100 µM (inactive) | > 100 µM (inactive) | > 100 µM (inactive) | 59.3 µM (inactive) | > 100 µM (inactive) | > 100 µM (inactive) | 32 µM (inactive) | > 100 µM (inactive) | > 100 µM (inactive) | 27.9 µM (inactive) | 25.1 µM (inactive) | 19.3 µM (inactive) | > 100 µM (inactive) | 34.8 µM (inactive) | 33.6 µM (inactive) | > 100 µM (inactive)
Cc1ccc([S@+]([O-])c2occc2C=O)cc1 | 17.1 µM (inactive) | 19.6 µM (inactive) | 19 µM (inactive) | 11.7 µM (inactive) | 1.81 µM (inactive) | 3.48 µM (inactive) | 7.55 µM (inactive) | 9.91 µM (inactive) | 2.81 µM (inactive) | 1.91 µM (inactive) | 17.7 µM (inactive) | 3.82 µM (inactive) | 15 µM (inactive) | 10.4 µM (inactive) | 5.07 µM (inactive) | 12.1 µM (inactive) | 1.93 µM (inactive) | 14.3 µM (inactive) | 12.9 µM (inactive) | 11.1 µM (inactive)
CN(CCNC(=O)c1cn(C)c2c1ccc1cc(Cl)c(Cl)cc12)CCNC(=O)c1cn(C)c2c1ccc1cc(Cl)c(Cl)cc12 | 3.82 µM (inactive) | 1.82 µM (inactive) | 1.82 µM (inactive) | 1.53 µM (inactive) | 1.74 µM (inactive) | 1.96 µM (inactive) | 1.77 µM (inactive) | 1.9 µM (inactive) | 2.18 µM (inactive) | 2.65 µM (inactive) | 2.22 µM (inactive) | 1.73 µM (inactive) | 1.84 µM (inactive) | 12.5 µM (inactive) | 2.08 µM (inactive) | 1.58 µM (inactive) | 1.8 µM (inactive) | 3.71 µM (inactive) | 1.77 µM (inactive) | 1.72 µM (inactive)
O=C1/C(=C/c2ccc(Cl)cc2)CCC1CN1CCOCC1 (stereo not given) | 19.6 µM (inactive) | 27.4 µM (inactive) | 11.5 µM (inactive) | 6.32 µM (inactive) | 2.28 µM (inactive) | 3.77 µM (inactive) | 4.6 µM (inactive) | 14.9 µM (inactive) | 6.37 µM (inactive) | 0.818 µM (active) | 17.5 µM (inactive) | 8 µM (inactive) | 16.5 µM (inactive) | 12.5 µM (inactive) | 14.8 µM (inactive) | 20.5 µM (inactive) | 2.47 µM (inactive) | 7.36 µM (inactive) | 15.9 µM (inactive) | 9.08 µM (inactive)
CCOC(=O)c1cn2c(n1)sc1cc(F)ccc12 | 30.8 µM (inactive) | > 100 µM (inactive) | > 100 µM (inactive) | > 100 µM (inactive) | 80.7 µM (inactive) | 46.9 µM (inactive) | 42.3 µM (inactive) | > 100 µM (inactive) | > 100 µM (inactive) | > 100 µM (inactive) | 74.8 µM (inactive) | > 100 µM (inactive) | > 100 µM (inactive) | > 100 µM (inactive) | > 100 µM (inactive) | 58.5 µM (inactive) | > 100 µM (inactive) | > 100 µM (inactive) | 77.6 µM (inactive) | > 100 µM (inactive)
COc1ccc(-c2cc(-c3ccco3)c(C#N)c(=S)n2C2OC(CO)C(O)C(O)C2O)cc1 (stereo not given) | > 100 µM (inactive) | > 100 µM (inactive) | > 10 µM (inactive) | 92.3 µM (inactive) | 50.4 µM (inactive) | 58.6 µM (inactive) | > 100 µM (inactive) | > 100 µM (inactive) | 49.7 µM (inactive) | > 100 µM (inactive) | 80.4 µM (inactive) | > 100 µM (inactive) | > 100 µM (inactive) | 44.7 µM (inactive) | > 100 µM (inactive) | > 100 µM (inactive) | > 100 µM (inactive) | > 100 µM (inactive) | 82.8 µM (inactive) | > 100 µM (inactive)
COC(=O)[C@@H]1C[C@@]23CCCN4CC[C@@]5(c6cccc(OC)c6N(C=O)[C@]15CC2)[C@@H]43 | > 100 µM (inactive) | > 100 µM (inactive) | > 100 µM (inactive) | > 100 µM (inactive) | > 100 µM (inactive) | > 100 µM (inactive) | > 100 µM (inactive) | > 100 µM (inactive) | > 100 µM (inactive) | > 100 µM (inactive) | > 100 µM (inactive) | > 100 µM (inactive) | > 100 µM (inactive) | > 100 µM (inactive) | > 100 µM (inactive) | 78.7 µM (inactive) | > 100 µM (inactive) | > 100 µM (inactive) | > 100 µM (inactive) | > 100 µM (inactive)
CN(C)c1ccc(/N=N/c2ccccn2)cc1 | 22.1 µM (inactive) | 19.8 µM (inactive) | 48.6 µM (inactive) | 5.93 µM (inactive) | 57.5 µM (inactive) | 3.18 µM (inactive) | 23.4 µM (inactive) | 28.8 µM (inactive) | 4.21 µM (inactive) | 11.3 µM (inactive) | 37 µM (inactive) | > 100 µM (inactive) | 55.1 µM (inactive) | 15.4 µM (inactive) | 58.6 µM (inactive) | 52.1 µM (inactive) | 17.5 µM (inactive) | 35.7 µM (inactive) | 4.66 µM (inactive) | 24.1 µM (inactive)
CCOC(=O)/C(C#N)=C/c1ccc2c(-c3c(OCC)ccc4cc(/C=C(\C#N)C(=O)OCC)ccc34)c(OCC)ccc2c1 | > 100 µM (inactive) | > 100 µM (inactive) | > 100 µM (inactive) | > 100 µM (inactive) | > 100 µM (inactive) | > 100 µM (inactive) | > 100 µM (inactive) | > 100 µM (inactive) | > 100 µM (inactive) | > 100 µM (inactive) | > 100 µM (inactive) | > 100 µM (inactive) | > 100 µM (inactive) | > 100 µM (inactive) | > 100 µM (inactive) | > 100 µM (inactive) | > 100 µM (inactive) | > 100 µM (inactive) | > 100 µM (inactive) | > 100 µM (inactive)
O=C1c2cc3c(cc2CC1Br)CCC3 (stereo not given) | 18.1 µM (inactive) | 18.2 µM (inactive) | 16 µM (inactive) | 2.86 µM (inactive) | 0.369 µM (active) | 2.07 µM (inactive) | 1.99 µM (inactive) | 12.1 µM (inactive) | 2.03 µM (inactive) | 1.82 µM (inactive) | 5.19 µM (inactive) | 3.1 µM (inactive) | 1.98 µM (inactive) | 1.18 µM (inactive) | 12.4 µM (inactive) | 2.93 µM (inactive) | 1.42 µM (inactive) | 2.75 µM (inactive) | 3.26 µM (inactive) | 10.6 µM (inactive)
CCC(CO)Nc1nc(NCc2ccccc2)c2ncn(C(C)C)c2n1 (stereo not drawn) [(RS)-ROSCOVITINE] | 23.9 µM (inactive) | 23.3 µM (inactive) | 35.8 µM (inactive) | 14.8 µM (inactive) | 16.5 µM (inactive) | 15.7 µM (inactive) | 23.4 µM (inactive) | 16.2 µM (inactive) | 9.23 µM (inactive) | 22.6 µM (inactive) | 19.3 µM (inactive) | 12.8 µM (inactive) | 20.7 µM (inactive) | 15.8 µM (inactive) | 34.9 µM (inactive) | 13.8 µM (inactive) | 25.2 µM (inactive) | 24.4 µM (inactive) | 27.9 µM (inactive) | 12.4 µM (inactive)
Fc1ccc(N2C(=S)SC(=N\c3ccccc3)/C2=N/c2ccccc2)cc1 | > 100 µM (inactive) | > 79.8 µM (inactive) | > 100 µM (inactive) | > 43.8 µM (inactive) | > 100 µM (inactive) | > 73.8 µM (inactive) | > 100 µM (inactive) | > 100 µM (inactive) | 41.6 µM (inactive) | 32.8 µM (inactive) | > 100 µM (inactive) | > 100 µM (inactive) | > 40.5 µM (inactive) | 41.3 µM (inactive) | > 100 µM (inactive) | > 100 µM (inactive) | > 100 µM (inactive) | > 100 µM (inactive) | > 87.7 µM (inactive) | > 86.1 µM (inactive)
